Results as given in ChEMBL document CHEMBL1275438, “The human CXC chemokine granulocyte chemotactic protein 2 (GCP-2)/CXCL6 possesses membrane-disrupting properties and is antibacterial” (2008).
≈ marks a conversion by molar mass, not a printed value. Calls of active or inactive are those of the source. No cut-off for these calls is given here.

Experiments:
Type in all cases: functional
[1] = system: Lipid bilayer; assay: Induction of negatively charged DOPE/DOPG liposome disruption by spectrometry in presence of 150 mM sodium chloride
[2] = system: Lipid bilayer; assay: Induction of negatively charged DOPE/DOPG liposome disruption assessed as percent leakage after <1000 sec by spectrometry
[3] = system: Streptococcus pyogenes; assay: Antibacterial activity against Streptococcus pyogenes AP1 after 1 hr by bactericidal assay
[4] = system: Escherichia coli; assay: Antibacterial activity against Escherichia coli 37.4 after 1 hr by bactericidal assay

| Structure (SMILES) | Activity [1] | Activity [2] [%] | MBC [3] [µM] | MBC ([3]; Streptococcus pyogenes, AP1, 1 h, read-out: MBC) [µM] | MBC [4] [µM] | MBC ([4]; Escherichia coli, 37.4, 1 h, read-out: MBC) [µM] |
| --- | --- | --- | --- | --- | --- | --- |
| CC[C@H](C)[C@H](NC(=O)[C@H](CCCCN)NC(=O)[C@H](CCC(N)=O)NC(=O)[C@@H](NC(=O)[C@@H](NC(=O)[C@H](CCCCN)NC(=O)[C@H](CCCCN)NC(=O)[C@H](CC(C)C)NC(=O)[C@H](Cc1ccccc1)NC(=O)[C@@H]1CCCN1C(=O)[C@@H](C)N)C(C)C)[C@@H](C)CC)C(=O)N[C@@H](CC(C)C)C(=O)N[C@@H](CC(=O)O)C(=O)N[C@@H](CO)C(=O)NCC(=O)N[C@@H](CC(N)=O)C(=O)N[C@@H](CCCCN)C(=O)N[C@@H](CCCCN)C(=O)N[C@@H](CC(N)=O)C(=O)O | Active | 70 |  |  |  |  |
| CC[C@H](C)[C@H](NC(=O)[C@H](CCCCN)NC(=O)[C@H](CCC(N)=O)NC(=O)[C@@H](NC(=O)[C@@H](NC(=O)[C@H](CCCCN)NC(=O)[C@H](CCCCN)NC(=O)[C@H](CC(C)C)NC(=O)[C@H](Cc1ccccc1)NC(=O)[C@@H]1CCCN1C(=O)[C@H](C)N)C(C)C)[C@@H](C)CC)C(=O)N[C@@H](CC(C)C)C(=O)N[C@@H](CC(=O)O)C(=O)N[C@@H](CO)C(=O)NCC(=O)N[C@@H](CC(N)=O)C(=O)N[C@@H](CCCCN)C(=O)N[C@@H](CCCCN)C(=O)N[C@@H](CC(N)=O)C(=O)O |  |  | 9.5 (≈ 20.3 µg/mL) | 5.7 (≈ 12.2 µg/mL) | 9.5 (≈ 20.3 µg/mL) | 5.6 (≈ 12 µg/mL) |
